Measured values taken from patent publication US20110319392A1, “Thiazole Sulfonamide And Oxazole Sulfonamide Kinase Inhibitors” (priority 2009, published 2011).

Tests used:
EGFR = molecular target: T1, EGFR (Homo sapiens, UniProt P00533); assay: EGFR substrate phosphorylation assay (HTRF); type: biochemical
T1 construct: made in house; host or cells: baculovirus expression system
Protocol: (§1) Compounds of the present invention were tested for EGFR and ErbB-2 protein tyrosine kinase inhibitory activity in substrate phosphorylation assays using enzymes purified from a baculovirus expression system. Reagent production was conducted essentially as described in Brignola, P. S., et al, (2002) J. Biol. Chem. 277(2):1576-1585.
(§2) The method measures the ability of the isolated enzyme to catalyse the transfer of the gamma-phosphate from ATP onto the tyrosine residue of a biotinylated synthetic peptide referenced “Peptide C” in Brignola, P. S., et al, (2002) J. Biol. Chem. 277(2):1576-1585. The extent of tyrosine phosphorylation was measured using an anti-phosphotyrosine antibody, and quantified by homogenous time-resolved fluorescence (HTRF).
(§3) Reactions were performed in black 384-well polystyrene flat-bottom plates in a final volume of 20 μL. Assays were performed by adding 10 μL of each of the following solutions, Substrate Mix and Enzyme Mix: The Substrate Mix contained 100 mM 3-[N-morpholino]propanesulfonic acid (MOPS) (pH 7.5), 2 mM MnCl2, 20 μM ATP, 0.01% Tween-20, 0.1 mg/mL (BSA), 0.8 uM peptide substrate, and 1 mM dithiothreitol. The Enzyme Mix contained 100 mM MOPS (pH7.5); 0.01% Tween-20; 0.1 mg/mL BSA, and either 0.8 nM EGFR, 10 nM ErbB2, or 1 nM ErbB4. The Enzyme Mix was added to the compound plates and the plates were incubated at 20° C. for 1 hr. The reactions were then started by adding the Substrate Mix.
(§4) After initiating the reaction with the method described above, the reactions were allowed to proceed for 90 minutes at 20° C. The reactions were then terminated by the addition of 20 μL 100 mM EDTA to each well. 40 μL/well of HTRF detection mix were added to the assay plates. The final concentrations of the detection reagents were: 100 mM HEPES (pH7.5), 0.1 mg/mL BSA, 15 nM streptavidin-labeled allophycocyanin (PerkinElmer), and 1 nM europium-labeled anti-phosphotyrosine antibody (Perkin Elmer). Assay plates were left unsealed and were counted in a Wallac Multilabel Counter 1420 (PerkinElmer).
(§5) Compounds under analysis were dissolved in dimethylsulfoxide (DMSO) to 1.0 mM and serially diluted 1 to 3 with DMSO through twelve dilutions. 1 μL of each concentration was transferred to the corresponding well of an assay plate. This creates a final compound concentration range from 0.00027 to 47.6 μM.
(§6) The data for dose responses were plotted as % Inhibition calculated with the data reduction formula 100*(1-(U1−C2)/(C1−C2)) versus concentration of compound where U1 is the unknown value, C1 is the average control value obtained for 4.76% DMSO, and C2 is the average control value obtained for 0.035 M EDTA. Data were fitted with a curve described by:
(§7) where Vmax is the upper asymptote, Y2 is the Y intercept, and K is the IC50. The results for each compound were recorded as pIC50s, calculated as follows: […]

ErbB2 = molecular target: T2, ErbB2 (Homo sapiens, UniProt P04626); assay: ErbB-2 substrate phosphorylation assay (HTRF); type: biochemical
T2 construct: made in house; host or cells: baculovirus expression system
Protocol: as §1, §2, §3, §4, §5, §6, §7

B-Raf = B-Raf (Homo sapiens, UniProt P15056); assay: B-Raf Accelerated MEK ATPase assay (BRAMA), Method A or B; type: biochemical; conditions: Method B: final MEK 150 nM, single end point read
Protocol: Compounds of the present invention were tested for B-Raf protein serine kinase inhibitory activity in a B-Raf Accelerated MEK ATPase assay (BRAMA). The BRAMA assay is a high sensitivity assay which measures an intrinsic MEK-mediated ATP hydrolysis uncoupled from downstream ERK phosphorylation by coupling the formation of ADP to NADH oxidation through the enzymes pyruvate kinase and lactate dehydrogenase. When ADP production is initiated by addition of catalytic amounts of an activated Raf enzyme and non-phosphorylated MEK, one observes robust ADP production concomitant with Raf-mediated phosphorylation of MEK.
Method A: Specific details of the assay are disclosed in: C. Rominger, M. Schaber, E. May. Assay for B-Raf Activity Based on Intrinsic MEK ATPase Activity. Statutory Invention Registration 11/084,993 (March, 2005). Method B: The method is the same as method A, but includes the following changes: 1) the assay was performed with a final MEK concentration of 150 nM and 2) the assay was read as single end point instead of a kinetic read.

Colo205 tumor cells = assay: Cell growth inhibition assay (CellTiter-Glo), Colo205; type: cell-based, Human; conditions: Homo sapiens, COLO 205, 72 h; 3 days incubation
Protocol: (§8) Human breast tumor cells (BT474) were cultured in RPMI (Mediatech […]), containing 10% FBS (JRH Biosciences 12176) and 1% penicillin-streptomycin (Invitrogen 15140). Human head and neck tumor cells (HN5) were cultured in high glucose DMEM (Mediatech 50-013-PB) containing 10% FBS and 1% penicillin-streptomycin. Human colon tumor cells (Colo205) were cultured in RPMI (Mediatech 50-020-PB) containing 10% FBS and 1% penicillin-streptomycin. Human melanoma cancer cells (SK-MEL-28) were cultured in EMEM with nonessential amino acids (Mediatech 50-011-PB) containing 10% FBS, 1% sodium pyruvate (JT Baker 3354-04), and 1% penicillin-streptomycin. Human melanoma cancer cells (A375P F11s) were cultured in RPMI (Mediatech 50-020-PB) containing 10% FBS, 1% sodium pyruvate, and 1% penicillin-streptomycin. Human colon cancer cells (HT-29) were cultured in high glucose DMEM (Mediatech 50-013-PB) containing 10% FBS and 1% penicillin-streptomycin. Human melanoma cancer cells (SK-MEL-3) were cultured in McCoy's 5A (50-025-PB) containing 15% FBS, and 1% penicillin-streptomycin. All cell lines were maintained at 37° C. in a humidified 5% CO2, 95% air incubator. Cells were harvested using trypsin/EDTA (Invitrogen 25200), counted using a haemocytometer, and plated. For 96-well assays (using white full-area NUNC plates cat. #136102), cells were plated in 105 μL at the following densities (cells/well): HNS, 500; Colo 205, 500; SK-MEL-28, 500; A375P F11s, 500; HT-29, 500; SK-MEL-3, 500; and BT474, 3000. For 384-well assays (white full-area NUNC plates, cat. #781080), cells were plated in 48 μL at the following densities (cells/well): HNS, 500; Colo205, 500; SK-MEL-28, 500; A375P F11s, 500; HT-29, 500; SK-MEL-3, 500; and BT474, 2000.
(§9) The next day, compounds were diluted as follow: For 96-well assays, 13.5 μL of compound in DMSO were diluted using nine (9) serial 1:3 dilutions of 4.5 μL in 9 of DMSO. Medium (270 μL/well of RPMI with 10% FBS and 1% penicillin-streptomycin) was added to the plates. Aliquots (7 μL) were added to cells in the final assay giving a final DMSO concentration of 0.2%. For 384-well assays, 15 μL of compound in DMSO were diluted using nine (9) serial 1:3 dilutions of 5 μL in 10 μL of DMSO, followed by a further dilution of 5 μL of compound with 95 μL of medium, of which 2 μL were added to cells in the final assay giving a final DMSO concentration of 0.2%. Cells were incubated at 37° C., 5% CO2 for 3 days.
(§10) Total ATP was measured (as a surrogate estimate of cell number) using CellTiter-Glo® reagent (Promega G7571). Briefly, plates were removed from the incubator and allowed to equilibrate to room temperature for 30 minutes. CellTiter-Glo® (25 μL or 55 μL for 384-well or 96-well assays, respectively) reagent was added to each well and plates were shaken on an orbital plate shaker for 2 minutes. Plates were incubated without shaking for a further 30 minutes and read on an LJL Analyst GT reader in luminometer mode with an integration time of 0.5 seconds per well. Percent inhibition of cell growth was calculated relative to DMSO vehicle-treated control wells. Concentration of compound required to give 50% inhibition of vehicle-treated control cell growth (IC50) was interpolated using a 4-parameter fit for determining IC50 using the following equation: Y=A +((B−A)/(1+((C/X)̂D))) where […].

SK-MEL-28 tumor cells = assay: Cell growth inhibition assay (CellTiter-Glo), SK-MEL-28; type: cell-based, Human; conditions: Homo sapiens, SK-MEL-28, 72 h; 3 days incubation
Protocol: as §8, §9, §10

Chain of B-Raf (P15056 whole entry): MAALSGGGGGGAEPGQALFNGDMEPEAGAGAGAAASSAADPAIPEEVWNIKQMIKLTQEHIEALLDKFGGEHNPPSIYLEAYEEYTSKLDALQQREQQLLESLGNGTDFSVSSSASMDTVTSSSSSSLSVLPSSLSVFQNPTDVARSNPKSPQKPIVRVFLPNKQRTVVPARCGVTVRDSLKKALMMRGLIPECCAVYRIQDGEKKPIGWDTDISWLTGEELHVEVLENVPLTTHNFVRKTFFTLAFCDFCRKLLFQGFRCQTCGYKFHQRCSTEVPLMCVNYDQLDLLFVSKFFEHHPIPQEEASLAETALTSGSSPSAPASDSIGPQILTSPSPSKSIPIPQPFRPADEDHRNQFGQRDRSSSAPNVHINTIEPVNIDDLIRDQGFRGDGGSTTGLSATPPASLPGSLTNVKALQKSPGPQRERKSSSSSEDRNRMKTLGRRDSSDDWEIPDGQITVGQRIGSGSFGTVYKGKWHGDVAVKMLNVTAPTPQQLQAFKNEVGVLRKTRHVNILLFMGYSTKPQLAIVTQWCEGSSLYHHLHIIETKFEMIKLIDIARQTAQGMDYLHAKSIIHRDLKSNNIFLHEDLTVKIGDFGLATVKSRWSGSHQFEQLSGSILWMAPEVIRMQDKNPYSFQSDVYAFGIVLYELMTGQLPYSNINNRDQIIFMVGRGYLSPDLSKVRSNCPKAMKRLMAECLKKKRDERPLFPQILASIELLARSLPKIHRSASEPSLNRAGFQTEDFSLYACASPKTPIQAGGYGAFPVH
T2 sequence (P04626 23-1255): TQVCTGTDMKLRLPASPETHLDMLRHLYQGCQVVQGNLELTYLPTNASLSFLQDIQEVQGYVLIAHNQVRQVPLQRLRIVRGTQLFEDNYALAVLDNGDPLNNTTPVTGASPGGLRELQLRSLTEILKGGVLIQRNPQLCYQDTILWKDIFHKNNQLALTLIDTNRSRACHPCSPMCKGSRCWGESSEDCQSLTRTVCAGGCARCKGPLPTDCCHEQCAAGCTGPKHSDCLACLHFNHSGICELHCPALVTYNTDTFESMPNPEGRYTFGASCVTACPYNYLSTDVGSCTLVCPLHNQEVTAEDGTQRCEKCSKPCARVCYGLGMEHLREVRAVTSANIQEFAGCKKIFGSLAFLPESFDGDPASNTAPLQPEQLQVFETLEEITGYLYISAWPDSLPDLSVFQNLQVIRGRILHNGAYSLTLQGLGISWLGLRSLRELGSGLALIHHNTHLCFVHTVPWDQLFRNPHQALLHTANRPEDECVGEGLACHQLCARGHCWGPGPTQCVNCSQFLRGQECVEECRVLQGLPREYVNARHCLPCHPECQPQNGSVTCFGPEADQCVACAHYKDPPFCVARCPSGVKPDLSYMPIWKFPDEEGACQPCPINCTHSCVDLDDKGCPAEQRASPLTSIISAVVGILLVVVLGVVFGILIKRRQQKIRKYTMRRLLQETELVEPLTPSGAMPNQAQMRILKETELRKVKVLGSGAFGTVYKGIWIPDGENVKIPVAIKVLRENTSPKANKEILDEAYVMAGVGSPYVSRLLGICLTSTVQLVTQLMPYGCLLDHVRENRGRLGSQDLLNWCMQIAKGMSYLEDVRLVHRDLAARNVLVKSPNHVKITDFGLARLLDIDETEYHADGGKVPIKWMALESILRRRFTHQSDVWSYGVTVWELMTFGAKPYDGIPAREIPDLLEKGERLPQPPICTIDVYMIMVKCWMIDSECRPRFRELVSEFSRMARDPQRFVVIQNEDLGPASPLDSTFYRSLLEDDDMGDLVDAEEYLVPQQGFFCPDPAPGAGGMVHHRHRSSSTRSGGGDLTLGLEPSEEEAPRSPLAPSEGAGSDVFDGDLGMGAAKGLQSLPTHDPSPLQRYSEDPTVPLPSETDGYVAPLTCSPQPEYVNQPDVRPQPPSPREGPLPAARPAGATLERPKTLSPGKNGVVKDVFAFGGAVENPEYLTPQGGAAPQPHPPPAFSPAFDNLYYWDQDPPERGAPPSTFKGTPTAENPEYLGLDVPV
T1 sequence (P00533 25-1210): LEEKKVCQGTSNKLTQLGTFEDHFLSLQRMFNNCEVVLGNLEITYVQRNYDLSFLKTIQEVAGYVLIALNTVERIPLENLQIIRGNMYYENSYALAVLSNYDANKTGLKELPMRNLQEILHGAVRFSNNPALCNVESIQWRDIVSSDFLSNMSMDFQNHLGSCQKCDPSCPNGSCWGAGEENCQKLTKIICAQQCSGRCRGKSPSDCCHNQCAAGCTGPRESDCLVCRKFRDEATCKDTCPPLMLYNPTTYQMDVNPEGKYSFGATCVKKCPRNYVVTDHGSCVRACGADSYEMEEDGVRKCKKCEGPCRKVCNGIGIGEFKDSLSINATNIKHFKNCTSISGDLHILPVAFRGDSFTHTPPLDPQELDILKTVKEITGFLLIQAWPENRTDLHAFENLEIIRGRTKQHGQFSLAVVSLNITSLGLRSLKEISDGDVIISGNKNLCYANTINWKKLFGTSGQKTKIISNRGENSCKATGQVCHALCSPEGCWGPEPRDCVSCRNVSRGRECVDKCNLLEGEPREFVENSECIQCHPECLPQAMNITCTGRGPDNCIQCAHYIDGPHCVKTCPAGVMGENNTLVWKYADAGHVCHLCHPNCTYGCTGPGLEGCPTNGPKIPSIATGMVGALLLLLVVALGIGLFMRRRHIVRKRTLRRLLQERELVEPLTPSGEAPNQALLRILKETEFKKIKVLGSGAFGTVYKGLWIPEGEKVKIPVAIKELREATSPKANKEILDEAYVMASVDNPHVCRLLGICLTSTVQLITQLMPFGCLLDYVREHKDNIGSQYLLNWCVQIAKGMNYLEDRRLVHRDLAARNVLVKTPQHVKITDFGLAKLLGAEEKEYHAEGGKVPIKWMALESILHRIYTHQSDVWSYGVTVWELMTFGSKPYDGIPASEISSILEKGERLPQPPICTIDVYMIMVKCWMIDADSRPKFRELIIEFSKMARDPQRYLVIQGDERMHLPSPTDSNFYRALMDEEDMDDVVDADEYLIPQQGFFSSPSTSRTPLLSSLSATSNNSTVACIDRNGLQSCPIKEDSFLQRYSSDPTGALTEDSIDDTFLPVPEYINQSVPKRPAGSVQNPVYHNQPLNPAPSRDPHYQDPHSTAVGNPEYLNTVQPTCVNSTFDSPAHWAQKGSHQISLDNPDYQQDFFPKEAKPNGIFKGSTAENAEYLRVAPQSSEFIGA

IC50 (EGFR)	IC50 (ErbB2)	IC50 (B-Raf)	IC50 (Colo205 tumor cells)	IC50 (SK-MEL-28 tumor cells)	SMILES
100 to 1000 nM	< 100 nM	< 100 nM	> 1000 nM	> 1000 nM	COc1ccc(S(C)(=O)=O)cc1Nc1nccc(-c2sc(C(C)C)nc2-c2cccc(NS(=O)(=O)c3c(F)cccc3F)n2)n1 [Example 172]
< 100 nM	< 100 nM	< 100 nM	100 to 1000 nM	< 100 nM	COc1cc(N2CCN(CCS(C)(=O)=O)CC2)c(C)cc1Nc1nccc(-c2sc(C(C)C)nc2-c2cccc(NS(=O)(=O)c3c(F)cccc3F)c2F)n1 [Example 125]
> 1000 nM	100 to 1000 nM	100 to 1000 nM	100 to 1000 nM	100 to 1000 nM	CCc1nc(-c2ccc(F)c(NS(=O)(=O)c3ccccc3)c2)c(-c2ccnc(Nc3ccc(N4CCN(CCS(C)(=O)=O)CC4)c(F)c3)n2)s1 [Example 67]
< 100 nM	< 100 nM	< 100 nM	< 100 nM	100 to 1000 nM	COc1cc(N2CCN(CCS(C)(=O)=O)CC2)c(C)cc1Nc1nccc(-c2sc(C(C)C)nc2-c2cccc(NS(=O)(=O)c3cccs3)c2)n1 [Example 50]
< 100 nM	< 100 nM	< 100 nM	< 100 nM	100 to 1000 nM	CCNc1nc(-c2cccc(NS(=O)(=O)c3c(F)cccc3F)c2)c(-c2ccnc(Nc3cc(C)c(N4CCN(CCS(C)(=O)=O)CC4)cc3OC)n2)s1 [Example 153]
< 100 nM	< 100 nM	100 to 1000 nM	> 1000 nM	> 1000 nM	COc1ccc(Nc2nccc(-c3sc(C(C)C)nc3-c3cccc(NS(=O)(=O)Cc4ccccc4)c3)n2)cc1N1CCN(CCS(C)(=O)=O)CC1 [Example 37]
> 1000 nM	> 1000 nM	< 100 nM	100 to 1000 nM	< 100 nM	Cc1cc(CS(C)(=O)=O)ccc1Nc1nccc(-c2sc(C(C)C)nc2-c2ccc(F)c(NS(=O)(=O)c3c(F)cccc3F)c2)n1 [Example 138]
> 1000 nM	> 1000 nM	100 to 1000 nM	100 to 1000 nM	100 to 1000 nM	CC(C)(F)c1nc(-c2ccc(F)c(NS(=O)(=O)c3c(F)cccc3F)c2)c(-c2ccnc(Nc3ccc(N4CCOCC4)nc3)n2)s1 [Example 103]
> 1000 nM	> 1000 nM	< 100 nM	100 to 1000 nM	100 to 1000 nM	COc1c(Nc2nccc(-c3sc(C(C)C)nc3-c3cccc(NS(=O)(=O)c4c(F)cccc4F)c3)n2)ccc(N2CCN(CCS(C)(=O)=O)CC2)c1C [Example 90]
< 100 nM	< 100 nM	100 to 1000 nM	100 to 1000 nM	100 to 1000 nM	COc1cc(N2CCN(CCS(C)(=O)=O)CC2)c(C)cc1Nc1nccc(-c2sc(C(C)C)nc2-c2cccc(NS(=O)(=O)c3c(F)cccc3F)n2)n1 [Example 45]
> 1000 nM	> 1000 nM	< 100 nM	< 100 nM	< 100 nM	CC(C)c1nc(-c2cccc(NS(=O)(=O)c3c(F)cccc3F)c2)c(-c2ccnc(Nc3ccc(N4CCN(CCS(C)(=O)=O)CC4)cc3C(F)(F)F)n2)s1 [Example 176]
> 1000 nM	> 1000 nM	< 100 nM	100 to 1000 nM	100 to 1000 nM	O=S(=O)(Nc1cc(-c2nc(N3CCCC3)oc2-c2ccnc(Nc3ccc(N4CCOCC4)c(F)c3)n2)ccc1F)c1ccccc1F [Example 59]
> 1000 nM	100 to 1000 nM	< 100 nM	> 1000 nM	> 1000 nM	CC(C)c1nc(-c2cccc(NS(=O)(=O)c3ccc(C(C)(C)C)cc3)c2)c(-c2ccnc(Nc3ccc(N4CCOCC4)nc3)n2)s1 [Example 142]
100 to 1000 nM	< 100 nM	< 100 nM	< 100 nM	< 100 nM	COc1cc(N2CCN(CCS(C)(=O)=O)CC2)c(C)cc1Nc1nccc(-c2sc(C(C)C)nc2-c2cccc(NS(=O)(=O)c3cccnc3)c2)n1 [Example 54]
> 1000 nM	> 1000 nM	< 100 nM	100 to 1000 nM	> 1000 nM	COC(=O)c1ccc(S(=O)(=O)Nc2cccc(-c3nc(C(C)C)sc3-c3ccnc(Nc4ccc(N5CCOCC5)nc4)n3)c2)o1 [Example 110]
> 1000 nM	> 1000 nM	100 to 1000 nM	> 1000 nM	> 1000 nM	Cc1[nH]c(=O)[nH]c(=O)c1S(=O)(=O)Nc1cccc(-c2nc(C(C)C)sc2-c2ccnc(Nc3ccc(N4CCOCC4)nc3)n2)c1 [Example 41]
